Data from patent US7875260B2, “Imaging agents for functional imaging of lymphatic structures” (Baylor College of Medicine, priority 2006, dated 2011).

Key:
[1] = target: T1, LYVE-1 present on the lymph endothelium (swine hindlimb lymph vessel) (Sus scrofa, UniProt I3LTD0); assay: Staining of lymph vessels with HA-NIR, compared with ICG; assay type: in vivo
T1 construct: LYVE-1 present on the lymph endothelium; from tissue; host or cells: live white Yorkshire swine, hindlimb lymph vessels (lymph endothelium)
T1 sequence (I3LTD0 25-326): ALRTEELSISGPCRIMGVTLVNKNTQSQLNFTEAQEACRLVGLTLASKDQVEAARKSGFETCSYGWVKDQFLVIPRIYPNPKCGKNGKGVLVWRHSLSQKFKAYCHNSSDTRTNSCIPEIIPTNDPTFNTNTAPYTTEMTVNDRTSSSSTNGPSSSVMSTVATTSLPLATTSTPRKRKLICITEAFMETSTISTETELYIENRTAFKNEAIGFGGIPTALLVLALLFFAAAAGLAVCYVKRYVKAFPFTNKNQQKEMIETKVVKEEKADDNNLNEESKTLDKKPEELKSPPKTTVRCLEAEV
Protocol: Four, two-month old, 60 lb white Yorkshire swine (K Bar Livestock, HC 69 Box 270 Sabinal, Tex.) were imaged using protocols which were approved by the Baylor College of Medicine Institutional Animal Care and Use Committee. The animals were anesthetized, intubated, and maintained with isoflurane. Animal body temperature was maintained at 100° F. using a warming blanket. At the end of the procedure, the animals were euthanized and lymph nodes resected with fluorescence guidance.
Continuous-wave optical imaging of the fluorescent NIR dyes was performed with a custom built intensified charged-coupled device (CCD). Reynolds J S, Troy T L, and Sevick-Muraca E M. Multipixel techniques for frequency-domain photon migration imaging. Biotechnol Prog 13: 669-680, 1997., incorporated herein by reference in its entirety for all purposes. Briefly, the device had three principal components: 1) a NIR-sensitive image intensifier (model FS9910C ITT Night Vision, Roanoke, Va.); 2) a 16-bit dynamic range, frame transfer CCD camera (Roper Scientific, Tucson, Ariz.); and 3) a 785-nm laser diode (Thorlabs) used to provide the excitation light for activating ICG and hyaluronan-NIR. The 785-nm laser diode beam was expanded by using a planoconvex lens and a holographic optical diffuser such that approximately 0.08 m^2 of the swine's body was illuminated. A 785-nm holographic notch band rejection filter (model HNPF-785.0-2.0, Kaiser Optical Systems, Ann Arbor, Mich.) and an 830-nm image quality bandpass filter (model 830.0-2.0, Andover, Salem, N.H.) were placed before the 28-mm Nikkor lens (Nikon) to selectively reject the excitation light and pass the emitted 830-nm wavelength. […]
Images were processed using MATLAB (The Mathworks, Natick, Mass.), ImageJ (National Institutes of Health, Bethesda, Md.), and V++ (Digital Optics, Auckland, New Zealand). […] To reveal the frequency of the pulsatile flow, which is a characteristic of pumping lymphatics, the mean fluorescence intensity from a fixed region of interest on a lymph channel was selected and plotted as a function of imaging time. […]

[2] = cited from earlier work

Row | propulsion of packets ([1]; intradermal, 64 μM HA-NIR or 32 μM ICG, swine hindlimb vessel) | Compound | normalized fluorescent intensity at fixed ROI as a function of time (FIG. 10C) ([1]; image acquisition 6 min, leg lymph vessel) | fluorescent intensity as a function of vessel length and time (FIGS. 11C, 11D) ([1]; swine lymph vessels) | fraction broken down in the liver ([2]; liver) | fraction degraded in lymph nodes ([2]; lymph nodes)
1 | observed | CC1(C)C(/C=C/C=C/C=C/C=C2\N(CCCCS(=O)(=O)O)c3ccc4ccccc4c3C2(C)C)=[N+](CCCCS(=O)(=O)[O-])c2ccc3ccccc3c21 [ICG, indocyanine green] | fluctuation and net reduction of intensity | varies with time and length along the vessel | – | –
2 | – | hyaluronic acid [HA] | – | – | 10% | 90%
